According to US12077503B2, “Substituted cyclic amides and their use as herbicides” (FMC CORPORATION, priority 2015, dated 2024):

What was measured:
Format in all cases: in vivo
[1] = system: ducksalad (Heteranthera limosa); experiment: Test B flooded paddy test; conditions: Flood, 250 g ai/ha; 0 to 100 scale where 0 is no effect and 100 is complete control; 13 to 15 d
Method in brief: (§1)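 Evaluation by eye, against controls, occurred 13–15 d post-treatment in a greenhouse, using a 0 (no effect) to 100 (complete control) scale. Application was into the paddy water, 3 cm deep over the soil, on 2-leaf plants.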

rice (Oryra sativa) = experiment: Test B flooded paddy test; conditions: Flood, 250 g ai/ha; 0 to 100 scale where 0 is no effect and 100 is complete control; 13 to 15 d
Method in brief: as §1

[2] = system: barnyardgrass (Echinochloa crus-galli); experiment: Test B flooded paddy test; conditions: Flood, 250 g ai/ha; 0 to 100 scale where 0 is no effect and 100 is complete control; 13 to 15 d
Method in brief: as §1

[3] = system: sedge, umbrella (small-flower umbrella sedge, Cyperus difformis); experiment: Test B flooded paddy test; conditions: Flood, 250 g ai/ha; 0 to 100 scale where 0 is no effect and 100 is complete control; 13 to 15 d
Method in brief: as §1

[4] = system: pigweed (Amaranthus retroflexus); experiment: Test A preemergence
[5] = system: giant foxtail (Setaria faberii); experiment: Test A preemergence
Method in brief: (§2)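 Seeded soil received test chemicals as a preemergence directed spray, and seedlings at one to two leaves, 2–10 cm tall, received them postemergence, in a non-phytotoxic, surfactant-containing solvent mixture. Pots were held in a greenhouse for approximately 10 d, then rated for injury from 0, no effect, to 100, complete control.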

[6] = system: ragweed (common ragweed, Ambrosia elatior); experiment: Test A preemergence
Method in brief: as §2

Kochia (Kochia scoparia) [7] = experiment: Test A preemergence
Method in brief: as §2

[8] = system: barnyardgrass (Echinochloa crus-galli); experiment: Test A preemergence
Method in brief: as §2

[9] = system: ryegrass, Italian (Italian ryegrass, Lolium multiflorum); experiment: Test A preemergence
Method in brief: as §2

[10] = system: pigweed (Amaranthus retroflexus); experiment: Test A postemergence; conditions: postemergence, 0 to 100 scale (0 no effect, 100 complete control)
Method in brief: as §2

[11] = system: giant foxtail (Setaria faberii); experiment: Test A postemergence; conditions: postemergence, 0 to 100 scale (0 no effect, 100 complete control)
Method in brief: as §2

corn (Zea mays) = experiment: Test A postemergence; conditions: postemergence, 0 to 100 scale (0 no effect, 100 complete control)
Method in brief: as §2

[12] = system: wheat (Triticum aestivum); experiment: Test A postemergence; conditions: postemergence, 0 to 100 scale (0 no effect, 100 complete control)
Method in brief: as §2

[13] = system: ragweed (common ragweed, Ambrosia elatior); experiment: Test A postemergence; conditions: postemergence, 0 to 100 scale (0 no effect, 100 complete control)
Method in brief: as §2

Kochia (Kochia scoparia) [14] = experiment: Test A postemergence; conditions: postemergence, 0 to 100 scale (0 no effect, 100 complete control)
Method in brief: as §2

[15] = system: Galium (catchweed bedstraw, Galium aparine); experiment: Test A postemergence; conditions: postemergence, 0 to 100 scale (0 no effect, 100 complete control)
Method in brief: as §2

[16] = system: blackgrass (Alopecurus myosuroides); experiment: Test A postemergence; conditions: postemergence, 0 to 100 scale (0 no effect, 100 complete control)
Method in brief: as §2

[17] = system: barnyardgrass (Echinochloa crus-galli); experiment: Test A postemergence; conditions: postemergence, 0 to 100 scale (0 no effect, 100 complete control)
Method in brief: as §2

[18] = system: ryegrass, Italian (Italian ryegrass, Lolium multiflorum); experiment: Test A postemergence; conditions: postemergence, 0 to 100 scale (0 no effect, 100 complete control)
Method in brief: as §2

[19] = 125 g ai/ha, Preemergence, visual injury after approximately 10 d, 0 to 100 scale where 0 is no effect and 100 is complete control
[20] = 500 g ai/ha, preemergence, 0 to 100 scale, 0 = no effect, 100 = complete control
[21] = 125 g ai/ha, visual rating after approx. 10 d
[22] = 500 g ai/ha, visual injury, approx. 10 d

## CN1CC(c2ccc(F)c(F)c2)C(C(=O)Nc2ccccc2S(C)(=O)=O)C1=O (stereo not drawn) [Compound 640]
[1]
  Plant response rating, Ducksalad: 100
Rice (Oryra sativa)
  Plant response rating, Rice: 25
[2]
  Plant response rating, Barnyardgrass: 30
[3]
  Plant response rating, Sedge, Umbrella: 0
[4]; [19]
  Plant response rating, Pigweed: 80
[4]; [20]
  Plant response rating, Pigweed: 90
[5]; [19]
  Plant response rating, Foxtail, Giant: 90
[5]; [20]
  Plant response rating, Foxtail, Giant: 90
[6]; [19]
  Plant response rating, Ragweed: 40
[6]; [20]
  Plant response rating, Ragweed: 60
Kochia (Kochia scoparia) [7]; [19]
  Plant response rating, Kochia: 50
Kochia (Kochia scoparia) [7]; [20]
  Plant response rating, Kochia: 60
[8]; [19]
  Plant response rating, Barnyardgrass: 90
[8]; [20]
  Plant response rating, Barnyardgrass: 90
[9]; [19]
  Plant response rating, Ryegrass, Italian: 20
[9]; [20]
  Plant response rating, Ryegrass, Italian: 50
[10]; [21]
  Plant response rating, Pigweed: 0
[10]; [22]
  Plant response rating, Pigweed: 20
[11]; [21]
  Plant response rating, Foxtail, Giant: 80
[11]; [22]
  Plant response rating, Foxtail, Giant: 90
Corn (Zea mays); [21]
  Plant response rating, Corn: 0
Corn (Zea mays); [22]
  Plant response rating, Corn: 0
[12]; [21]
  Plant response rating, Wheat: 0
[12]; [22]
  Plant response rating, Wheat: 50
[13]; [21]
  Plant response rating, Ragweed: 0
[13]; [22]
  Plant response rating, Ragweed: 0
Kochia (Kochia scoparia) [14]; [21]
  Plant response rating, Kochia: 0
Kochia (Kochia scoparia) [14]; [22]
  Plant response rating, Kochia: 40
[15]; [21]
  Plant response rating, Galium: 40
[15]; [22]
  Plant response rating, Galium: 50
[16]; [21]
  Plant response rating, Blackgrass: 0
[16]; [22]
  Plant response rating, Blackgrass: 50
[17]; [21]
  Plant response rating, Barnyardgrass: 90
[17]; [22]
  Plant response rating, Barnyardgrass: 90
[18]; [21]
  Plant response rating, Ryegrass, Italian: 0
[18]; [22]
  Plant response rating, Ryegrass, Italian: 0
